{"source": "patent US7745402B2", "about": "“Method of treating pancreatitis” (Lundbeck Inc., priority 2005, dated 2010)", "key": {"peritoneal cells": {"tested_on": "peritoneal cells", "experiment": "Effect of hemin on peritoneal cell number (cell counting, flow cytometry)", "assay_type": "in vivo", "conditions": "mice injected during a 7-day period, 3 per group, p 0.06 vs vehicle", "method": "The effect of hemin or vehicle on peritoneal cell number was assayed. Mice (3 per group) were injected with vehicle or hemin during a 7-day period. Peritoneal cells were then isolated followed by counting. Cell viability was greater than 98% using trypan blue exclusion. The number of cells that were double positive for Mac-1^+ and F4/80^+ was then determined using flow cytometry. P-values compared the hemin treated versus the vehicle treated groups."}, "MCP-1": {"tested_on": "MCP-1", "experiment": "Real-time RT-PCR of pancreatic chemokine mRNA after hemin", "assay_type": "in vivo, mice", "conditions": "pancreas 24 h after one intraperitoneal injection", "method": "(§1) FIG. 3: Hemin increases HO-1^+ pancreatic macrophages in association with MCP-1 and MIP-1α induction. (A) Pancreas from CDD-fed mice was triple-stained using antibodies to HO-1 (a), the macrophage marker F4/80 (b), and the granulocyte marker Gr-1 (c). Scale bar in panel d=[…]. (B) Mice were treated intraperitoneally with hemin (H) or vehicle (V) once (H×1) or 3×(H×3, V×3) during a one week period, followed by feeding with CDD or regular chow for 3 d. Pancreata were collected followed by staining and counting F4/80^+ macrophages in 10 randomly selected high power fields (HPF). The mean±SD (3 mice/group) and p-value for the indicated comparisons are shown. (C) Hemin (H) or vehicle (V) were injected intraperitoneally once followed by harvesting of pancreata after 24 h. A non-injected control “C” group was also included. mRNA levels were then estimated from pancreata of 3 mice/group as a ratio of the indicated chemokine to β-actin (mean±SD).\n(§2) Real-time reverse transcription (RT)-PCR. Total RNA was isolated from pancreatic tissue using a commercial kit (TEL-TEST; Friendswood, Tex.). First strand cDNA was synthesized using oligo-dT primers and SuperScript II reverse transcriptase (Invitrogen; Carlsbad, Calif.). Real-time quantitative PCR was performed with an ABI Prism 7900 Sequence Detection System (PE Biosystems; Foster City, Calif.) and established primers for MCP-1, MIP-1α, MIP-2, RANTES, and β-actin. Zhong, B., et al., J. Cell Sci. 117:1709-1719; Zhang, Y., McCormick, L. L., Desai, S. R., Wu, C., and Gilliam, A. C. 2002. Murine sclerodermatous graft-versus-host disease, a model for human scleroderma: cutaneous cytokines, chemokines, and immune cell activation. J. Immunol. 168:3088-3098; Walzog, B., Weinmann, P., Jeblonski, F., Scharffetter-Kochanek, K., Bommert, K., and Gaehtgens, P. 1999. A role for beta(2) integrins (CD11/CD18) in the regulation of cytokine20 gene expression of polymorphonuclear neutrophils during the inflammatory response. FASEB J. 13:1855-1865. Primers to β-actin were used as an internal control reference, and the amount of specific cytokine relative to actin transcript was determined and reported as mean±SD."}, "MIP-1α": {"tested_on": "MIP-1α", "experiment": "Real-time RT-PCR of pancreatic chemokine mRNA after hemin", "assay_type": "in vivo, mice", "conditions": "pancreas 24 h after one intraperitoneal injection", "method": "as §1, §2"}, "RANTES": {"tested_on": "RANTES", "experiment": "Real-time RT-PCR of pancreatic chemokine mRNA after hemin", "assay_type": "in vivo, mice", "conditions": "pancreas 24 h after one intraperitoneal injection", "method": "as §1, §2"}, "MIP-2": {"tested_on": "MIP-2", "experiment": "Real-time RT-PCR of pancreatic chemokine mRNA after hemin", "assay_type": "in vivo, mice", "conditions": "pancreas 24 h after one intraperitoneal injection", "method": "as §1, §2"}, "HO-2": {"tested_on": "HO-2", "experiment": "HO-2 immunoblot of mouse tissue homogenates after hemin", "assay_type": "in vivo, mice", "conditions": "any of the tissues; hemin 3× during 7 d"}}, "data": [{"substance": "Hemin", "values": [{"measurement": "Total cell number", "setting": "peritoneal cells", "value": "7.3 ± 2.1 × 10^6"}, {"measurement": "MCP-1 mRNA (ratio to β-actin)", "setting": "MCP-1", "value": "induction"}, {"measurement": "MIP-1α mRNA (ratio to β-actin)", "setting": "MIP-1α", "value": "induction"}, {"measurement": "change in RANTES mRNA level", "setting": "RANTES", "value": "not significant"}, {"measurement": "change in MIP-2 mRNA level", "setting": "MIP-2", "value": "not significant"}, {"measurement": "HO-2 levels", "setting": "HO-2", "value": "did not change"}]}]}
